pIC50: −log10 of the molar value.
Target: human PD-L1 / Human PD-1 (Homo sapiens (Human), UniProt Q9NZQ7)
Assay: Enzyme-Linked Immunosorbent Assay (ELISA), PD-1/PD-L1 binding
Settings: plate-coated human PD-L1, biotinylated human PD-1
Description: Biological Example: Enzyme-Linked Immunosorbent Assay—ELISA
96 Well plates were coated with […] of human PD-L1 (obtained from R&D) in PBS overnight at 4° C. The wells were then blocked with 2% BSA in PBS (W/V) with 0.05% TWEEN-20 for 1 hour at 37° C. The plates were washed 3 times with PBS/0.05% TWEEN-20 and the compounds were serial diluted (1:5) in dilution medium and added to the ELISA plates. Human PD-1 and biotin 0.3 μg/mL (ACRO Biosystems) were added and incubated for 1 hour at 37° C. then washed 3 times with PBS/0.05% TWEEN-20. A second block was performed with 2% BSA in PBS (W/V)/0.05% TWEEN-20 for 10 min at 37° C. and was washed 3 times with PBS/0.05% TWEEN-20. Streptavidin-HRP was added for 1 hour at 37° C. then washed 3 times with PBS/0.05% TWEEN-20. TMB substrate was added and reacted for 20 min at 37° C. A stop solution (2 N aqueous H2SO4) was added. The absorbance was read at 450 nm using a micro-plate spectrophotometer.

Sequence of human PD-L1 / Human PD-1 (Q9NZQ7 19-239): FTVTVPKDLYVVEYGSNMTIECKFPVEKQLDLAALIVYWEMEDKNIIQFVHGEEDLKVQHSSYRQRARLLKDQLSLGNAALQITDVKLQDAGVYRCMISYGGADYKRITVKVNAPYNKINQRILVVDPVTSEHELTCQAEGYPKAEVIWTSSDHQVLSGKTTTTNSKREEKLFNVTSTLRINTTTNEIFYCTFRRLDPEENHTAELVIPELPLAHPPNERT

Row | SMILES | pIC50
1 | N#Cc1cncc(COc2cc(O[C@H]3CCc4c(-c5cccc(OCCCN6CC7(CC(O)C7)C6)c5Cl)cccc43)c(Cl)cc2CN2CCCC3(C2)NC(=O)NC3=O)c1 (stereo partly shown) | 6.30 to 8.30
2 | N#Cc1cncc(COc2cc(O[C@H]3CCc4c(-c5cccc(OCCCN6CC(O)C6)c5Cl)cccc43)c(Cl)cc2CN2CCC(O)CC2)c1 | > 8.30
3 | N#Cc1cncc(COc2cc(O[C@H]3CCc4c(-c5cccc(OCCCN6CC(O)C6)c5Cl)cccc43)c(Cl)cc2CN2CC[C@@H](O)C2)c1 | > 8.30
4 | Cc1c(OCCCN2CCC(O)CC2(C)C)cccc1-c1cccc2c1CC[C@@H]2Oc1cc(OCc2cc(C#N)cc(C#N)c2)c(CN[C@H]2CCC(=O)NC2)cc1Cl (stereo partly shown) | > 8.30
5 | N#Cc1cncc(COc2cc(O[C@H]3CCc4c(-c5cccc(OCCCN6CCC(O)CC6)c5Cl)cccc43)c(Cl)cc2CN[C@@H]2CCCC[C@@H]2O)c1 | > 8.30
6 | N#Cc1cncc(COc2cc(O[C@H]3CCc4c(-c5cccc(OCCCN6CCC(O)CC6)c5Cl)cccc43)c(Cl)cc2CNCC2CCC(=O)N2)c1 (stereo partly shown) | > 8.30
7 | CCOc1cc(O[C@@H]2c3cccc(-c4cccc(OCCCN5CCC(F)CC5)c4Cl)c3C[C@@H]2F)c(Cl)cc1CNC[C@H]1CCC(=O)N1 | 6.30 to 8.30
8 | N#Cc1cncc(COc2cc(O[C@H]3CCc4c(-c5cccc(OCCC(N)=O)c5Cl)cccc43)c(Cl)cc2CNC[C@H]2CCC(=O)N2)c1 | 6.30 to 8.30
9 | N#Cc1cncc(COc2cc(O[C@H]3CCc4c(-c5cccc(OCCCN6CCC(F)CC6)c5C(F)(F)F)cccc43)c(Cl)cc2CNCC2CCC(=O)N2)c1 (stereo partly shown) | 6.30 to 8.30
10 | CC1(O)CN(Cc2cc(Cl)c(O[C@H]3CCc4c(-c5cccc(OCCCN6CCC(F)CC6)c5Cl)cccc43)cc2OCc2cncc(C#N)c2)C1 | > 8.30
11 | N#Cc1cncc(COc2cc(O[C@H]3CCc4c(-c5cccc(OCCCN6CC(F)(F)C6)c5Cl)cccc43)c(Cl)cc2CNC[C@H]2CCC(=O)N2)c1 | 6.30 to 8.30
12 | CCOc1cc(O[C@H]2CCc3c(-c4cccc(OCCCN5CCC5(C)C)c4C)cccc32)c(Cl)cc1CN(C)CCCC(=O)OC | 6.30 to 8.30
13 | CCOc1cc(O[C@H]2CCc3c(-c4cccc(OCCC(C)(C)N)c4C)cccc32)c(Cl)cc1CN[C@H]1CCC(=O)NC1 | 6.30 to 8.30
14 | Cc1c(OCCCN2CCC(F)CC2)cccc1-c1cccc2c1CC[C@@H]2Oc1cc(OCc2cc(C#N)cc(C#N)c2)c(CN[C@H]2CCOC[C@H]2O)cc1Cl | > 8.30
15 | N#Cc1cncc(COc2cc(O[C@H]3CCc4c(-c5cccc(OCCCN6CCCCC6)c5Cl)cccc43)c(Cl)cc2CNC[C@@H]2CCC(=O)N2)c1 | > 8.30
16 | Cc1c(OCCCN2CCC(O)CC2)cccc1-c1cccc2c1CC[C@@H]2Oc1cc(OCc2cncc(C#N)c2)c(CN2CCC(O)CC2)cc1Cl | > 8.30
17 | N#Cc1cncc(COc2cc(O[C@H]3CCc4c(-c5cccc(OCCCN6CC(O)C6)c5Cl)cccc43)c(Cl)cc2CN[C@@H]2CCCC[C@@H]2O)c1 | > 8.30

Row | SMILES | pIC50
18 | N#Cc1cncc(COc2cc(O[C@H]3CCc4c(-c5cccc(OCCCN6CCC(F)CC6)c5Cl)cccc43)c(Cl)cc2CN[C@@H]2CCOC[C@H]2F)c1 [drawing 223] | 6.30 to 8.30
19 | N#Cc1cncc(COc2cc(O[C@H]3CCc4c(-c5cccc(OCCCN6CC(F)(F)C6)c5Cl)cccc43)c(Cl)cc2CN[C@@H]2CCCC[C@@H]2O)c1 | 6.30 to 8.30
20 | N#Cc1cncc(COc2cc(O[C@H]3CCc4c(-c5cccc(OCCCN6CC7(C6)CC(F)(F)C7)c5Cl)cccc43)c(Cl)cc2CN[C@H]2CCC[C@H]2O)c1 | > 8.30
21 | CN1CCC(COc2cccc(-c3cccc4c3CC[C@@H]4Oc3cc(OCc4cncc(C#N)c4)c(CN[C@H]4CCC(=O)NC4)cc3Cl)c2Cl)C1=O (stereo partly shown) | 6.30 to 8.30
22 | Cc1c(OCCCN2CCC(F)CC2)cccc1-c1cccc2c1CC[C@@H]2Oc1cc(OCc2cc(C#N)cc(C#N)c2)c(CNC2CCNC(=O)C2)cc1Cl (stereo partly shown) | > 8.30
23 | N#Cc1cncc(COc2cc(O[C@H]3CCc4c(-c5cccc(OCCCN6CCC(F)CC6)c5Cl)cccc43)c(Cl)cc2CN[C@@H]2CCC(=O)NC2)c1 | > 8.30
24 | CC(C)(O)CNCc1cc(Cl)c(O[C@H]2CCc3c(-c4cccc(OCCCN5CC(O)C5)c4Cl)cccc32)cc1OCc1cncc(C#N)c1 | > 8.30
25 | N#Cc1cncc(COc2cc(O[C@H]3CCc4c(-c5cccc(OCCCN6CCC(F)CC6)c5Cl)cccc43)c(Cl)cc2CN[C@@H]2CCOC[C@@H]2O)c1 | > 8.30
26 | CC(C)OC(=O)[C@](C)(CO)NCc1cc(Cl)c(O[C@H]2CCc3c(-c4cccc(OCCCN5CC(O)C5)c4Cl)cccc32)cc1OCc1cncc(C#N)c1 | > 8.30
27 | Cc1c(OCCCN2CCC(F)CC2)cccc1-c1cccc2c1CC[C@@H]2Oc1cc(OCc2cc(C#N)cc(C#N)c2)c(CNC[C@@H]2CCC(=O)N2)cc1Cl | > 8.30
28 | N#Cc1cncc(COc2cc(O[C@H]3CCc4c(-c5cccc(OCCCN6CCC(F)CC6)c5Cl)cccc43)c(Cl)cc2CN[C@H]2CCC[C@@H]2O)c1 | > 8.30
29 | N#Cc1cncc(COc2cc(O[C@H]3CCc4c(-c5cccc(OCCCN6CCC(F)CC6)c5Cl)cccc43)c(Cl)cc2CN[C@@H]2CCC[C@@H]2O)c1 | > 8.30
30 | Cc1c(OCCCN2CCC(F)CC2)cccc1-c1cccc2c1CC[C@@H]2Oc1cc(OCc2cncc(C#N)c2)c(CNC[C@@H]2CCC(=O)N2)cc1Cl | > 8.30
31 | COc1cc(O[C@H]2CCc3c(-c4cccc(OCCCN5CCC(C)(F)CC5)c4C)cccc32)c(Cl)cc1CN[C@H]1CCC(=O)NC1 | 6.30 to 8.30
32 | CCN1CCC(COc2cccc(-c3cccc4c3CC[C@@H]4Oc3cc(OCc4cncc(C#N)c4)c(CNC[C@@H]4CCC(=O)N4)cc3Cl)c2Cl)C1 (stereo partly shown) | > 8.30
33 | N#Cc1cncc(COc2cc(O[C@H]3CCc4c(-c5cccc(OCCCN6CCC(F)CC6)c5Cl)cccc43)c(Cl)cc2CNC[C@H]2CCC(=O)N2)c1 | > 8.30

Further lines, results first:

Row | pIC50 | SMILES
34 | 4.70 to 6.30 | CCOc1cc(O[C@@H]2CCc3c(-c4cccc(OCCCN5CCC5(C)C)c4C)cccc32)c(Cl)cc1CN(C)CCC(=O)O
35 | 6.30 to 8.30 | Cc1c(OCCCN2CCC(O)CC2)cccc1-c1cccc2c1CC[C@@H]2Oc1cc(OCc2cncc(C#N)c2)c(CN[C@H](C(=O)OC(C)(C)C)[C@@H](C)O)cc1Cl
36 | 6.30 to 8.30 | CCOc1cc(O[C@@H]2c3cccc(-c4cccc(OCCCN5CCC(C)(F)CC5)c4C)c3C[C@@H]2F)c(Cl)cc1CN[C@H](C(=O)NS(C)(=O)=O)[C@@H](C)O
37 | > 8.30 | Cc1c(OCCCN2CCC(O)CC2)cccc1-c1cccc2c1CC[C@@H]2Oc1cc(OCc2cncc(C#N)c2)c(CN[C@@H]2CCCC[C@H]2O)cc1Cl
38 | > 8.30 | Cc1c(OCCCN2CCC(O)CC2)cccc1-c1cccc2c1CC[C@@H]2Oc1cc(OCc2cncc(C#N)c2)c(CN2CC(C(=O)O)C2)cc1Cl
39 | 6.30 to 8.30 | CCOc1cc(O[C@H]2CCc3c(-c4cccc(OCCCN5CC[C@@H](O)C5)c4C)cccc32)c(Cl)cc1CN[C@@H](CO)C(=O)OC(C)C
40 | 6.30 to 8.30 | CCOc1cc(O[C@H]2CCc3c(-c4cccc(OCCCN5CCCC5(C)C)c4C)cccc32)c(Cl)cc1CNC[C@@H]1CCC(=O)N1 [drawing 377]
41 | 6.30 to 8.30 | COc1cc(O[C@H]2CCc3c(-c4cccc(OCCCN5CCC(F)CC5)c4C)cccc32)c(Cl)cc1CN[C@H]1CCC(=O)NC1
42 | 6.30 to 8.30 | Cc1c(OCCCN2CCC(O)CC2)cccc1-c1cccc2c1CC[C@@H]2Oc1cc(OCc2cncc(C#N)c2)c(CNC(C)(CO)CO)cc1Cl
43 | > 8.30 | Cc1c(OCCCN2CCC[C@H](O)C2)cccc1-c1cccc2c1CC[C@@H]2Oc1cc(OCc2cncc(C#N)c2)c(CN[C@H](C(=O)O)[C@@H](C)O)cc1Cl
44 | 6.30 to 8.30 | CCOc1cc(O[C@H]2CCc3c(-c4cccc(OCCCN5CC(C)(C)C5)c4C)cccc32)c(Cl)cc1CNC[C@@H]1CCC(=O)N1
45 | 6.30 to 8.30 | CCOc1cc(O[C@H]2CCc3c(-c4cccc(OCCC(C)(C)N)c4C)cccc32)c(Cl)cc1CNC[C@@H]1CCC(=O)N1
46 | > 8.30 | Cc1c(OCCCN2CCC(O)(C(=O)O)CC2)cccc1-c1cccc2c1CC[C@@H]2Oc1cc(OCc2cncc(C#N)c2)c(CN[C@H](C(=O)O)[C@@H](C)O)cc1Cl
47 | > 8.30 | CCOc1cc(O[C@H]2CCc3c(-c4cccc(OCCCN5CC[C@@H](O)C5)c4C)cccc32)c(Cl)cc1CN[C@@H](CO)C(=O)O
48 | > 8.30 | Cc1c(OCCCN2CCC(O)CC2)cccc1-c1cccc2c1CC[C@@H]2Oc1cc(OCc2cc(C#N)cc(C#N)c2)c(CN[C@H](C(=O)O)[C@@H](C)O)cc1Cl
49 | 6.30 to 8.30 | CCOc1cc(O[C@H]2CCc3c(-c4cccc(OCCCN5CCC5(C)C)c4C)cccc32)c(Cl)cc1CN1CC(C)(C#N)C1
50 | > 8.30 | CCOc1cc(O[C@H]2CCc3c(-c4cccc(OCCCN5CCC(O)CC5)c4C)cccc32)c(Cl)cc1CN[C@H](C(=O)O)[C@@H](C)O
51 | > 8.30 | Cc1c(OCCCN2CCC(O)CC2)cccc1-c1cccc2c1CC[C@@H]2Oc1cc(OCc2cncc(C#N)c2)c(CN(C)[C@H](C(=O)O)[C@@H](C)O)cc1Cl
52 | > 8.30 | CCOc1cc(O[C@H]2CCc3c(-c4cccc(OCCCN5CC[C@@H](O)C5)c4C)cccc32)c(Cl)cc1CNC(C)(CO)C(=O)O (stereo partly shown)
53 | > 8.30 | CCOc1cc(O[C@H]2CCc3c(-c4cccc(OCCCN5C(C)CC5C)c4C)cccc32)c(Cl)cc1CNC[C@@H]1CCC(=O)N1 (stereo partly shown)
54 | 6.30 to 8.30 | CCOc1cc(O[C@H]2CCc3c(-c4cccc(OCCCNC(C)(C)C)c4C)cccc32)c(Cl)cc1CN1CC(C(=O)O)C1
55 | 6.30 to 8.30 | CCOc1cc(O[C@H]2CCc3c(-c4cccc(OCCCN5CCC5(C)C)c4C)cccc32)c(Cl)cc1CN1CC(CC)(C(=O)O)C1
56 | > 8.30 | Cc1c(OCCCN2CCC[C@H]2CO)cccc1-c1cccc2c1CC[C@@H]2Oc1cc(OCc2cncc(C#N)c2)c(CN[C@H](C(=O)O)[C@@H](C)O)cc1Cl
57 | 6.30 to 8.30 | CCOc1cc(O[C@H]2CCc3c(-c4cccc(OCCCN5CCC(F)CC5)c4Cl)cccc32)c(Cl)cc1CNC(C)(CO)CO
58 | 6.30 to 8.30 | CCOc1cc(O[C@H]2CCc3c(-c4cccc(OCCCN5CCC5(C)C)c4C)cccc32)c(Cl)cc1CNCCS(=O)(=O)O

Source: patent US10919852B2, “Immunomodulator compounds” (CHEMOCENTRYX, INC., priority 2017, dated 2021)
